The record followed here is paper PMC9072656, “Inhibition of Human Sulfotransferases by Phthalate Monoesters” (Frontiers in Endocrinology, 2022).

Common to all, as to assay type: biochemical
In test [1] the target is T1, SULT1B1 (Homo sapiens, UniProt O43704).
T1 construct: recombinant, purchased from BD Gentest
The test can be described thus: inhibition of 4-nitrophenol sulfation, UPLC-UV. An excerpt:
inhibition of 4-nitrophenol sulfation, UPLC-UV on SULT1B1

In a further test the target is T2, SULT1A1 (Homo sapiens, UniProt P50225).
T2 construct: recombinant, purchased from BD Gentest
T2 sequence (P50225 whole entry): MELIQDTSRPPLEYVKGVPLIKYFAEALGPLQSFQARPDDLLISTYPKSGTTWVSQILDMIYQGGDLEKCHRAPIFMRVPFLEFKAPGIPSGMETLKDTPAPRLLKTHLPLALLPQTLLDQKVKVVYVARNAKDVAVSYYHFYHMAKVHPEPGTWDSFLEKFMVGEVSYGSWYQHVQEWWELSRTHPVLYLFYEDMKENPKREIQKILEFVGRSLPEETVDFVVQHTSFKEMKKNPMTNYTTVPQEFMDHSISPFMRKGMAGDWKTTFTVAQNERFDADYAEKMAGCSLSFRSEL
The test can be described thus: inhibition of 4-nitrophenol sulfation, UPLC-UV. An excerpt: inhibition of 4-nitrophenol sulfation, UPLC-UV on SULT1A1

Test [2] deals with T3, SULT1E1 (Homo sapiens, UniProt P49888).
T3 construct: recombinant, purchased from BD Gentest
T3 sequence (P49888 1-294): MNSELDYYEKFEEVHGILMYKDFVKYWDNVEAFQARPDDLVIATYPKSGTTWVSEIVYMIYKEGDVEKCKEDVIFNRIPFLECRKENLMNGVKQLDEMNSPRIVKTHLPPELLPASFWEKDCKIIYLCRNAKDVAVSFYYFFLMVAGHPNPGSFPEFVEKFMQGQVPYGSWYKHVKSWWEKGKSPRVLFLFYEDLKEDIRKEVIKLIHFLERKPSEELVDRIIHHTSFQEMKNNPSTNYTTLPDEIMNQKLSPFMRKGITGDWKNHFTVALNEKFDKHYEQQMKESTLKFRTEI
As to the kind of experiment: inhibition of 4-nitrophenol sulfation, UPLC-UV. An excerpt:
inhibition of 4-nitrophenol sulfation, UPLC-UV on SULT1E1

Test [3] addresses T3, SULT1E1. As to the kind of experiment: inhibition of 4-nitrophenol sulfation, UPLC-UV, Lineweaver-Burk slope replot.
Test [4] concerns the target T1, SULT1B1. The description is as above.

Structures are written as SMILES.

T1 sequence (O43704 whole entry): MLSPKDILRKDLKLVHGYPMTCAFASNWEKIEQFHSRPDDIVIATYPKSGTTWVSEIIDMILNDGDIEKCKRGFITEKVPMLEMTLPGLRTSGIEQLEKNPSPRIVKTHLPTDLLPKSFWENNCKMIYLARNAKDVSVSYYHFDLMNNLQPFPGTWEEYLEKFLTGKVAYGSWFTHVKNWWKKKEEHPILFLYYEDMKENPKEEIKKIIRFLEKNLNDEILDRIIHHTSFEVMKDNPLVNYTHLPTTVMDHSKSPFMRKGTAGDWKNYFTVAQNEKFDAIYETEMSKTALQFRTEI

`CCCCOC(=O)c1ccccc1C(=O)O` [MBP] had a 50% inhibitory concentration (IC50) on SULT1B1 [1] of 8.49 µM.
As for `O=C(O)c1ccccc1C(=O)OCc1ccccc1` [MBZP], half-maximal inhibition at SULT1A1 (IC50) was put at 0.25 µM.
On to `O=C(O)c1ccccc1C(=O)OC1CCCCC1` [MCHP], for which the IC50 at SULT1B1 [1] stood at 12.8 µM.
In the case of `CCCCC(CC)COC(=O)c1ccccc1C(=O)O` (centres unmarked) [MEHP], the results for the IC50 at SULT1A1, at SULT1E1 [2] and at SULT1B1 [1] were 2.32 µM, 1730 nM and 13.9 µM, respectively.
Regarding `CCCCCCOC(=O)c1ccccc1C(=O)O` [MHP], the IC50 against SULT1A1 was 17.1 µM; against SULT1E1 [2], 4540 nM; against SULT1B1 [1] it was 11.6 µM.
On to `CCCCCCCCOC(=O)c1ccccc1C(=O)O` [MOP], for which the results for the half-inhibitory concentration (IC50) at SULT1A1, against SULT1E1 [2] and against SULT1B1 [1] were 5.61 µM, 1770 nM and 2.73 µM, respectively. The inhibition constant (Ki) at SULT1E1 [3] stood at 5.54 µM; at SULT1B1 [4], 2230 nM.

In general, IC50 refers to the concentration at which inhibition is half-maximal. A high value points to weaker potency. Broadly, the Ki is the dissociation constant of the complex between target and ligand, obtained from inhibition or displacement.
